Biological target: T1, human mGlu4 receptor (Homo sapiens, UniProt Q14833)
T1 construct: expressed in transfected cells; host or cells: HEK-293 (monoclonal, stably transfected)
Assay: Ca2+ mobilization in vitro assay on recombinant human mGlu4 expressed in HEK293 cells (mGlu4 PAM)
Format: cell-based
Conditions: for Emax: HEK293, maximal response in % of the maximal stimulatory effect obtained with saturating concentrations of L-AP4, read-out: Eff. (%); for EC50: HEK-293 cells, Ca2+ mobilization, L-AP4 added at EC20
Experimental: Determination of EC50 Values Using a Ca2+ mobilization in vitro Assay on Recombinant Human mGlu4 Expressed in HEK293 cells:
A monoclonal HEK-293 cell line stably transfected with a cDNA encoding for the human mGlu4 receptor was generated; for the work with mGlu4 Positive Allosteric Modulators (PAMs), a cell line with low receptor expression levels and low constitutive receptor activity was selected to allow the differentiation of agonistic versus PAM activity. Cells were cultured according to standard protocols (Freshney, 2000) in Dulbecco's Modified Eagle Medium with high glucose supplemented with 1 mM glutamine, 10% (vol/vol) heat-inactivated bovine calf serum, Penicillin/Streptomycin, 50 μg/ml hygromycin and 15 μg/ml blasticidin (all cell culture reagents and antibiotics from Invitrogen, Basel, Switzerland).
About 24 hrs before an experiment, 5×10^4 cells/well were seeded in poly-D-lysine coated, black/clear-bottomed 96-well plates. The cells were loaded with 2.5 μM Fluo-4AM in loading buffer (1×HBSS, 20 mM HEPES) for 1 hr at 37° C. and washed five times with loading buffer. The cells were transferred into a Functional Drug Screening System 7000 (Hamamatsu, Paris, France), and 11 half logarithmic serial dilutions of test compound at 37° C. were added and the cells were incubated for 10-30 min. with on-line recording of fluorescence. Following this pre-incubation step, the agonist (2S)-2-amino-4-phosphonobutanoic acid (L-AP4) was added to the cells at a concentration corresponding to EC20 with on-line recording of fluorescence; in order to account for day-to-day variations in the responsiveness of cells, the EC20 of L-AP4 was determined immediately ahead of each experiment by recording of a full dose-response curve of L-AP4.
Responses were measured as peak increase in fluorescence minus basal (i.e. fluorescence without addition of L-AP4), normalized to the maximal stimulatory effect obtained with saturating concentrations of L-AP4. Graphs were plotted with the % maximal stimulatory using XLfit, a curve fitting program that iteratively plots the data using Levenburg Marquardt algorithm. The single site competition analysis equation used was y=A+((B−A)/(1+((x/C)D))), where y is the % maximal stimulatory effect, A is the minimum y, B is the maximum y, C is the EC50, x is the log 10 of the concentration of the competing compound and D is the slope of the curve (the Hill Coefficient). From these curves the EC50 (drug concentration at which 50% of the maximal receptor activation was achieved), the Hill coefficient as well as the maximal response in % of the maximal stimulatory effect obtained with saturating concentrations of L-AP4 were calculated (see FIG. 1).
A depression of the signal observed after addition of the EC20 concentration of L-AP4was indicative of an inhibitory activity of the test compound.

T1 sequence (Q14833 33-912): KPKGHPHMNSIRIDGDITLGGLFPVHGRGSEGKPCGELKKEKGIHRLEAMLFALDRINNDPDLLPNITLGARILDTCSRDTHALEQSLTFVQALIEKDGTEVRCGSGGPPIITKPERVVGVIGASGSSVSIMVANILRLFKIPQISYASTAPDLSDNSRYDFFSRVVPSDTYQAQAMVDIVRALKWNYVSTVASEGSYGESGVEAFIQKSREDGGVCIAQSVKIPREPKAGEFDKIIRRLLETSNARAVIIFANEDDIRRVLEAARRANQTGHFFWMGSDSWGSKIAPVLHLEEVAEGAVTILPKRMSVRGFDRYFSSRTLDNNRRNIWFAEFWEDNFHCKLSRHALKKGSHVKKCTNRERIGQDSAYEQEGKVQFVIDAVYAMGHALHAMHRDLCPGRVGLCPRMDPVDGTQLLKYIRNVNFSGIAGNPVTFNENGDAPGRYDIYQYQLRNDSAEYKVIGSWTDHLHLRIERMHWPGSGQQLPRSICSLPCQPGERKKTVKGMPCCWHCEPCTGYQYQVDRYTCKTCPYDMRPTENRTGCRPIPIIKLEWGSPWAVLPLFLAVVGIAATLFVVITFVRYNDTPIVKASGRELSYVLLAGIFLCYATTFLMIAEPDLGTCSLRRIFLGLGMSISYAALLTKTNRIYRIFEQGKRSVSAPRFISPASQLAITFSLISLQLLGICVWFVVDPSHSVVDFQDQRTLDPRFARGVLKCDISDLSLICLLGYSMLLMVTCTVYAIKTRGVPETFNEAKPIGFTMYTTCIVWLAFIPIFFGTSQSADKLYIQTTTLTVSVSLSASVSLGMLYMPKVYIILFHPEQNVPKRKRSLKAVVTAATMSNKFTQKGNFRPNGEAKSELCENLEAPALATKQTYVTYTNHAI

Structure (SMILES) | Emax [%] | EC50 [nM]
CN1C(=O)N(c2c(F)cc(C#Cc3ccccc3)cc2F)C(=O)C[C@@]1(C)c1ccc(=O)[nH]n1 [Example 82, (6S)-3-[2,6-Difluoro-4-(2-phenylethynyl)phenyl]-1,6-dimethyl-6-(6-oxo-1H-pyridazin-3-yl)hexahydropyrimidine-2,4-dione] | 115 | 18
CN1C(=O)N(c2c(F)cc(C#Cc3ccccc3)cc2F)C(=O)CC12CCCC2 [Example 6, 8-[2,6-Difluoro-4-(2-phenylethynyl)phenyl]-6-methyl-6,8-diazaspiro[4.5]decane-7,9-dione] | 142 | 72
CN1C(=O)N(c2c(F)cc(C#Cc3ccccc3)cc2F)C(=O)C[C@@]1(C)c1ccc(=O)[nH]c1 [Example 65, (6S)-3-[2,6-Difluoro-4-(2-phenylethynyl)phenyl]-1,6-dimethyl-6-(6-oxo-1H-pyridin-3-yl)hexahydropyrimidine-2,4-dione] | 123 | 36
COc1cc([C@]2(C)CC(=O)N(c3c(F)cc(C#Cc4ccccc4)cc3F)C(=O)N2C)ccn1 [Example 73, (6S)-3-[2,6-Difluoro-4-(2-phenylethynyl)phenyl]-6-(2-methoxy-4-pyridyl)-1,6-dimethyl-hexahydropyrimidine-2,4-dione] | 120 | 47
CN1C(=O)N(c2c(F)cc(C#Cc3ccccc3)cc2F)C(=O)CC12CCCOC2 (racemic) [Example 17, (6RS)-3-[2,6-Difluoro-4-(2-phenylethynyl)phenyl]-1-methyl-8-oxa-1,3-diazaspiro[5.5]undecane-2,4-dione] | 129 | 183
CN1C(=O)N(c2ccc(C#Cc3ccccc3)cc2Cl)C(=O)CC12CCC2 [Example 5, 7-[2-Chloro-4-(2-phenylethynyl)phenyl]-5-methyl-5,7-diazaspiro[3.5]nonane-6,8-dione] | 93 | 304
CN1C(=O)N(c2ncc(C#Cc3ccccc3)cc2F)C(=O)CC1(C)c1ccccc1 (racemic) [Example 45, (6RS)-3-[3-Fluoro-5-(2-phenylethynyl)-2-pyridyl]-1,6-dimethyl-6-phenyl-hexahydropyrimidine-2,4-dione] | 107 | 72

Next, values leading:

Emax [%] | EC50 [nM] | Structure (SMILES)
105 | 46 | COc1ncc([C@]2(C)CC(=O)N(c3c(F)cc(C#Cc4ccccc4)cc3F)C(=O)N2C)cn1 [Example 79, (6S)-3-[2,6-Difluoro-4-(2-phenylethynyl)phenyl]-6-(2-methoxypyrimidin-5-yl)-1,6-dimethyl-hexahydropyrimidine-2,4-dione]
105 | 116 | CN1C(=O)N(c2ncc(C#Cc3ccccc3)cc2C(F)(F)F)C(=O)CC1(C)c1ccccc1 (racemic) [Example 46, (6RS)-1,6-Dimethyl-6-phenyl-3-[5-(2-phenylethynyl)-3-(trifluoromethyl)-2-pyridyl]hexahydropyrimidine-2,4-dione]
99 | 48 | CCN1C(=O)N(c2c(F)cc(C#Cc3ccccc3)cc2F)C(=O)C[C@@]1(C)c1cccnc1 [Example 52, (6S)-3-[2,6-Difluoro-4-(2-phenylethynyl)phenyl]-1-ethyl-6-methyl-6-(3-pyridyl)hexahydropyrimidine-2,4-dione]
99 | 49 | CN1C(=O)N(c2c(F)cc(C#Cc3ccccc3)cc2F)C(=O)C[C@@]1(C)c1cccnn1 [Example 58, (6S)-3-[2,6-Difluoro-4-(2-phenylethynyl)phenyl]-1,6-dimethyl-6-pyridazin-3-yl-hexahydropyrimidine-2,4-dione]
107 | 341 | CN1C(=O)N(c2ccc(C#Cc3ccccc3)cc2Cl)C(=O)CC1(C)C [Example 2, 3-[2-Chloro-4-(2-phenylethynyl)phenyl]-1,6,6-trimethyl-hexahydropyrimidine-2,4-dione]
103 | 388 | CN1C(=O)N(c2ccc(C#Cc3ccccc3)cc2Cl)C(=O)CC12CCOCC2 [Example 4, 3-[2-Chloro-4-(2-phenylethynyl)phenyl]-1-methyl-9-oxa-1,3-diazaspiro[5.5]undecane-2,4-dione]

Source: US9725416B2, “Ethynyl derivatives” (Hoffmann-La Roche Inc., priority 2014, dated 2017)
